Measurements taken from paper PMC11222147, “Host defence peptide plectasin targets bacterial cell wall precursor lipid II by a calcium-sensitive supramolecular mechanism” (Nature Microbiology, 2024).
Values after ≈ are worked out from the molar mass of the structure shown. Where a SMILES comes first, the peptide text is derived from it. Bridges are numbered along the chain shown (N, C = ends).

System: S. simulans 22
Experiment: MIC assays under standard conditions
Type: cell-based, Staphylococcus simulans
Details: for Minimum inhibitory concentration, S. simulans: Supplementary Table 1, 16–20 h
Experimental: Plectasin and analogues were serially diluted in cation-adjusted Mueller–Hinton broth (MHB) in round-bottom polypropylene 96-well plates (50 µl per well). Selected bacterial strains were grown from glycerol stocks on blood agar plates. Individual colonies were inoculated in TSB and incubated at 37 °C while shaking until OD600 reached 0.5. Bacterial suspensions were then diluted 100 times in cation-adjusted MHB and distributed (50 μl per well) over the microplate containing the diluted plectasin solutions. Plates were covered by a gas-permeable adhesive membrane and incubated at 37 °C while shaking. MICs were determined by visual inspection after 16–20 h (Staphylococcus) or 20–24 h (Streptococcus). For Streptococcus strains, the broth was additionally supplemented with 5% lysed horse blood, and the microplates were incubated under 5% CO2 atmosphere. In the assays, we used the following strains: S. simulans, S. pneumoniae serotype 8, S. pneumoniae ATCC6305 and Streptococcus pyogenes M3.

SMILES	Minimum inhibitory concentration, S. simulans (cation-adjusted MHB, 37 °C)	reduction in activity vs plectasin (from MIC of Table 1)	MIC (standard conditions, cation-adjusted MHB, 37 °C, visual inspection after 16–20 h) [µg/mL]
CSCC[C@@H]1NC(=O)[C@H](CC(=O)O)NC(=O)[C@H](CC(=O)O)NC(=O)[C@H](CCC(=O)O)NC(=O)[C@H](CC(=O)O)NC(=O)[C@H](Cc2c[nH]c3ccccc23)NC(=O)[C@@H]2CCCN2C(=O)CNC(=O)[C@H](CC(N)=O)NC(=O)[C@@H](NC(=O)CNC(=O)[C@H](Cc2ccccc2)NC(=O)CN)CSSC[C@@H]2NC(=O)[C@H](Cc3ccc(O)cc3)NC(=O)CNC(=O)CNC(=O)[C@H](CCCCN)NC(=O)[C@H](Cc3ccc(O)cc3)NC(=O)CNC(=O)[C@H](CCCCN)NC(=O)[C@H](CC(=O)O)NC(=O)[C@H](CO)NC(=O)[C@H](CCCCN)NC(=O)[C@@H]3CSSC[C@@H](C(=O)N[C@@H](Cc4ccc(O)cc4)C(=O)O)NC(=O)[C@H](CCCCN)NC(=O)[C@H](CSSC[C@H](NC(=O)[C@H](CCC(N)=O)NC1=O)C(=O)N[C@@H](Cc1c[nH]cn1)C(=O)N[C@@H](CC(N)=O)C(=O)N[C@@H](Cc1c[nH]cn1)C(=O)N3)NC(=O)[C@H](C(C)C)NC(=O)[C@H](Cc1ccccc1)NC(=O)CNC(=O)CNC(=O)[C@H](CCCCN)NC(=O)[C@H](C)NC2=O [I22D] (H-GFGCNGPWDEDDMQCHNHCKSDKGYKGGYCAKGGFVCKCY-OH; disulfide 4-30, 15-37, 19-39 (inferred); N-terminus and C-terminus assumed)	> 50 µg/mL		
CSCC[C@@H]1NC(=O)[C@H](CC(=O)O)NC(=O)[C@H](CC(=O)O)NC(=O)[C@H](CCC(=O)O)NC(=O)[C@H](CC(=O)O)NC(=O)[C@H](Cc2c[nH]c3ccccc23)NC(=O)[C@@H]2CCCN2C(=O)CNC(=O)[C@H](CC(N)=O)NC(=O)[C@@H](NC(=O)CNC(=O)[C@H](Cc2ccccc2)NC(=O)CN)CSSC[C@@H]2NC(=O)[C@H](Cc3ccc(O)cc3)NC(=O)CNC(=O)CNC(=O)[C@H](CCCCN)NC(=O)[C@H](Cc3ccc(O)cc3)NC(=O)CNC(=O)[C@H](CCCCN)NC(=O)[C@H](Cc3ccccc3)NC(=O)[C@H](CO)NC(=O)[C@H](CCCCN)NC(=O)[C@@H]3CSSC[C@@H](C(=O)N[C@@H](Cc4ccc(O)cc4)C(=O)O)NC(=O)[C@H](CCCCN)NC(=O)[C@H](CSSC[C@H](NC(=O)[C@H](CCC(N)=O)NC1=O)C(=O)N[C@@H](Cc1c[nH]cn1)C(=O)N[C@@H](CC(N)=O)C(=O)N[C@@H](Cc1c[nH]cn1)C(=O)N3)NC(=O)[C@H](C(C)C)NC(=O)[C@H](Cc1ccccc1)NC(=O)CNC(=O)CNC(=O)[C@H](CCCCN)NC(=O)[C@H](C)NC2=O [I22F] (H-GFGCNGPWDEDDMQCHNHCKSFKGYKGGYCAKGGFVCKCY-OH; disulfide 4-30, 15-37, 19-39 (inferred); N-terminus and C-terminus assumed)	> 50 µg/mL		
CSCC[C@@H]1NC(=O)[C@H](CC(=O)O)NC(=O)[C@H](CC(=O)O)NC(=O)[C@H](CCC(=O)O)NC(=O)[C@H](CC(=O)O)NC(=O)[C@H](Cc2c[nH]c3ccccc23)NC(=O)[C@@H]2CCCN2C(=O)CNC(=O)[C@H](CC(N)=O)NC(=O)[C@@H](NC(=O)CNC(=O)[C@H](Cc2ccccc2)NC(=O)CN)CSSC[C@@H]2NC(=O)[C@H](Cc3ccc(O)cc3)NC(=O)CNC(=O)CNC(=O)[C@H](CCCCN)NC(=O)[C@H](Cc3ccc(O)cc3)NC(=O)CNC(=O)[C@H](CCCCN)NC(=O)[C@H](CC(C)C)NC(=O)[C@H](CO)NC(=O)[C@H](CCCCN)NC(=O)[C@@H]3CSSC[C@@H](C(=O)N[C@@H](Cc4ccc(O)cc4)C(=O)O)NC(=O)[C@H](CCCCN)NC(=O)[C@H](CSSC[C@H](NC(=O)[C@H](CCC(N)=O)NC1=O)C(=O)N[C@@H](Cc1c[nH]cn1)C(=O)N[C@@H](CC(N)=O)C(=O)N[C@@H](Cc1c[nH]cn1)C(=O)N3)NC(=O)[C@H](C(C)C)NC(=O)[C@H](Cc1ccccc1)NC(=O)CNC(=O)CNC(=O)[C@H](CCCCN)NC(=O)[C@H](C)NC2=O [I22L] (H-GFGCNGPWDEDDMQCHNHCKSLKGYKGGYCAKGGFVCKCY-OH; disulfide 4-30, 15-37, 19-39 (inferred); N-terminus and C-terminus assumed)	1,56 μg/mL		
CSCC[C@@H]1NC(=O)[C@H](CC(=O)O)NC(=O)[C@H](CC(=O)O)NC(=O)[C@H](CCC(=O)O)NC(=O)[C@H](CC(=O)O)NC(=O)[C@H](Cc2c[nH]c3ccccc23)NC(=O)[C@@H]2CCCN2C(=O)CNC(=O)[C@H](CC(N)=O)NC(=O)[C@@H](NC(=O)CNC(=O)[C@H](Cc2ccccc2)NC(=O)CN)CSSC[C@@H]2NC(=O)[C@H](Cc3ccc(O)cc3)NC(=O)CNC(=O)CNC(=O)[C@H](CCCCN)NC(=O)[C@H](Cc3ccc(O)cc3)NC(=O)CNC(=O)[C@H](CCCCN)NC(=O)[C@H](C(C)C)NC(=O)[C@H](CO)NC(=O)[C@H](CCCCN)NC(=O)[C@@H]3CSSC[C@@H](C(=O)N[C@@H](Cc4ccc(O)cc4)C(=O)O)NC(=O)[C@H](CCCCN)NC(=O)[C@H](CSSC[C@H](NC(=O)[C@H](CCC(N)=O)NC1=O)C(=O)N[C@@H](Cc1c[nH]cn1)C(=O)N[C@@H](CC(N)=O)C(=O)N[C@@H](Cc1c[nH]cn1)C(=O)N3)NC(=O)[C@H](C(C)C)NC(=O)[C@H](Cc1ccccc1)NC(=O)CNC(=O)CNC(=O)[C@H](CCCCN)NC(=O)[C@H](C)NC2=O [I22V] (H-GFGCNGPWDEDDMQCHNHCKSVKGYKGGYCAKGGFVCKCY-OH; disulfide 4-30, 15-37, 19-39 (inferred); N-terminus and C-terminus assumed)	1,56 μg/mL		
CC[C@H](C)[C@@H]1NC(=O)[C@H](CO)NC(=O)[C@H](CCCCN)NC(=O)[C@@H]2CSSC[C@@H](C(=O)N[C@@H](Cc3ccc(O)cc3)C(=O)O)NC(=O)[C@H](CCCCN)NC(=O)[C@@H]3CSSC[C@H](NC(=O)[C@H](CCC(N)=O)NC(=O)[C@H](CCSC)NC(=O)[C@H](CC(=O)O)NC(=O)[C@H](CC(=O)O)NC(=O)[C@H](CCC(=O)O)NC(=O)[C@H](CC(=O)O)NC(=O)[C@H](Cc4c[nH]c5ccccc45)NC(=O)[C@@H]4CCCN4C(=O)CNC(=O)[C@H](CC(N)=O)NC(=O)[C@@H](NC(=O)CNC(=O)[C@H](Cc4ccccc4)NC(=O)CN)CSSC[C@H](NC(=O)[C@H](Cc4ccc(O)cc4)NC(=O)CNC(=O)CNC(=O)[C@H](CCCCN)NC(=O)[C@H](Cc4ccc(O)cc4)NC(=O)CNC(=O)[C@H](C)NC1=O)C(=O)N[C@@H](C)C(=O)N[C@@H](CCCCN)C(=O)NCC(=O)NCC(=O)N[C@@H](Cc1ccccc1)C(=O)N[C@@H](C(C)C)C(=O)N3)C(=O)N[C@@H](Cc1c[nH]cn1)C(=O)N[C@@H](CC(N)=O)C(=O)N[C@@H](Cc1c[nH]cn1)C(=O)N2 [K23A] (H-GFGCNGPWDEDDMQCHNHCKSIAGYKGGYCAKGGFVCKCY-OH; disulfide 4-30, 15-37, 19-39 (inferred); N-terminus and C-terminus assumed)		fivefold to tenfold	6.25 (≈ 1.44 µM)
CC[C@H](C)[C@@H]1NC(=O)[C@H](CO)NC(=O)[C@H](CCCCN)NC(=O)[C@@H]2CSSC[C@@H](C(=O)N[C@@H](Cc3ccc(O)cc3)C(=O)O)NC(=O)[C@H](CCCCN)NC(=O)[C@@H]3CSSC[C@H](NC(=O)[C@H](CCC(N)=O)NC(=O)[C@H](CCSC)NC(=O)[C@H](CC(=O)O)NC(=O)[C@H](CC(=O)O)NC(=O)[C@H](CCC(=O)O)NC(=O)[C@H](CC(=O)O)NC(=O)[C@H](Cc4c[nH]c5ccccc45)NC(=O)[C@@H]4CCCN4C(=O)CNC(=O)[C@H](CC(N)=O)NC(=O)[C@@H](NC(=O)CNC(=O)[C@H](Cc4ccccc4)NC(=O)CN)CSSC[C@H](NC(=O)[C@H](Cc4ccc(O)cc4)NC(=O)CNC(=O)CNC(=O)[C@H](CCCCN)NC(=O)[C@H](Cc4c[nH]cn4)NC(=O)CNC(=O)[C@H](CCCCN)NC1=O)C(=O)N[C@@H](C)C(=O)N[C@@H](CCCCN)C(=O)NCC(=O)NCC(=O)N[C@@H](Cc1ccccc1)C(=O)N[C@@H](C(C)C)C(=O)N3)C(=O)N[C@@H](Cc1c[nH]cn1)C(=O)N[C@@H](CC(N)=O)C(=O)N[C@@H](Cc1c[nH]cn1)C(=O)N2 [Y25H] (H-GFGCNGPWDEDDMQCHNHCKSIKGHKGGYCAKGGFVCKCY-OH; disulfide 4-30, 15-37, 19-39 (inferred); N-terminus and C-terminus assumed)	≤ 0.78 µg/mL		
CC[C@H](C)[C@@H]1NC(=O)CNC(=O)[C@H](CCCCN)NC(=O)[C@H]([C@@H](C)CC)NC(=O)[C@H](CO)NC(=O)[C@H](CCCCN)NC(=O)[C@@H]2CSSC[C@@H](C(=O)N[C@@H](Cc3ccc(O)cc3)C(=O)O)NC(=O)[C@H](CCCCN)NC(=O)[C@@H]3CSSC[C@H](NC(=O)[C@H](CCC(N)=O)NC(=O)[C@H](CCSC)NC(=O)[C@H](CC(=O)O)NC(=O)[C@H](CC(=O)O)NC(=O)[C@H](CCC(=O)O)NC(=O)[C@H](CC(=O)O)NC(=O)[C@H](Cc4c[nH]c5ccccc45)NC(=O)[C@@H]4CCCN4C(=O)CNC(=O)[C@H](CC(N)=O)NC(=O)[C@@H](NC(=O)CNC(=O)[C@H](Cc4ccccc4)NC(=O)CN)CSSC[C@H](NC(=O)[C@H](Cc4ccc(O)cc4)NC(=O)CNC(=O)CNC(=O)[C@H](CCCCN)NC1=O)C(=O)N[C@@H](C)C(=O)N[C@@H](CCCCN)C(=O)NCC(=O)NCC(=O)N[C@@H](Cc1ccccc1)C(=O)N[C@@H](C(C)C)C(=O)N3)C(=O)N[C@@H](Cc1c[nH]cn1)C(=O)N[C@@H](CC(N)=O)C(=O)N[C@@H](Cc1c[nH]cn1)C(=O)N2 [Y25I] (H-GFGCNGPWDEDDMQCHNHCKSIKGIKGGYCAKGGFVCKCY-OH; disulfide 4-30, 15-37, 19-39 (inferred); N-terminus and C-terminus assumed)	6,25 μg/mL		
